Reference: patent publication US8846951B2 (AbbVie Inc., priority 2009, dated 2014)
pEC50: −log10 of the molar value. Like-named read-outs stand apart in the source and are kept apart here.

Tests used:
5HT2C receptors = molecular target: T1, 5HT2C receptors (Homo sapiens, UniProt P28335); experiment: Human 5-HT2C functional high throughput screening assay in CHO-K1 cells (calcium flux); format: cell-based; parameters: expressed in transfected cells; host or cells: CHO-K1 cells; settings: for pEC50: CHO-K1 cells, calcium flux; for Emax: CHO-K1, 5-HT2C, maximum functional response as percentage relative to the effect of serotonin
T1 sequence (P28335 33-458): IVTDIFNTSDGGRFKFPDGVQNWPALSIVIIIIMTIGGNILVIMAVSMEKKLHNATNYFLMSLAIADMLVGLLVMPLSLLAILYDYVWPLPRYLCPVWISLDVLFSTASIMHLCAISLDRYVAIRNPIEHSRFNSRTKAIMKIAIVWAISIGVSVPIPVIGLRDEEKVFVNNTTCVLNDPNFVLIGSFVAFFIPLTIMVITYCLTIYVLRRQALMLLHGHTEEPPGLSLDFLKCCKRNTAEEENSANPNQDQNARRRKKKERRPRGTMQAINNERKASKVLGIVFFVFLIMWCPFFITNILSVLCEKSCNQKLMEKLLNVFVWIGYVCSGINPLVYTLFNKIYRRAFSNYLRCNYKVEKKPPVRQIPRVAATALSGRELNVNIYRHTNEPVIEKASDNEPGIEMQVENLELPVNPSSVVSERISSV
Procedure: (§1) (iii) Human 5-HT2C and 5-HT2B Functional High Throughput Screening Assays in CHO-K1 Cells
(§2) CHO-K1 cells over-expressing 5HT2C or 5HT2B receptors were grown in 1272 cm^2 flasks to 70-80% confluency in UltraCHO media (Lonza, Walkersville, Md.) supplemented with 1% dialyzed fetal bovine serum (FBS), 250 μg/mL zeocin, 100 U/mL penicillin and 100 μg/mL streptomycin, and 400 μg/mL geneticin. The cells were dissociated from the flasks using 0.05% trypsin, resuspended in Recovery™ cell culture freezing medium (Invitrogen, Carlsbad, Calif.) and stored in liquid nitrogen until use. The calcium flux experiments were done using frozen cells. The cells were diluted in media containing 1% dialyzed FBS and 100 U/mL penicillin and 100 μg/mL streptomycin and plated into 384-well poly-D-Lysine coated plates (15,000 cells/well). Then the plates were incubated overnight in a cell incubator at 37° C., 5% CO2. On the next day, the growth media was replaced with media without FBS and further incubated overnight. On day three, the changes in intracellular Ca^2+ were determined using calcium sensitive fluorescent dye, Ca4 (MDS Analytical Technologies, Sunnyvale, Calif.) by loading 15 μL of diluted dye in Hank's Balanced Salt Solution and 20 mM Hepes buffer (pH 7.4) with final concentration of 2.5 mM probenecid into the cells containing media. Then the cells were incubated at room temperature for 60 minutes in dark.
(§3) After incubation, the cell plates were transferred to FLIPR™ (MDS) and their fluorescence measurements were read at an excitation wavelength of 480 nm and an emission wavelength of 530 nm at 25° C. The baseline fluorescence was measured for the first 10 seconds and then 15 μL of 4× concentration of serotonin/test compound was added to the cells. The fluorescence intensity was captured every second for the first 1 minute followed by every 5 seconds for an additional 2 minutes. The increase in fluorescent response by a test compound was normalized to the response of serotonin and used to determine agonist activity. The concentration response of compounds was done from a starting concentration of 10 μM, 1:10 dilution across 6 wells with a final dimethyl sulfoxide concentration of 0.2% and was fitted using a 4-parameter logistic equation. The concentration at which a compound exerts half its maximal effect was named as ‘effective concentration 50’ or ‘EC50’. Emax is the maximum functional response or efficacy expressed as a percentage relative to the effect of serotonin.

5HT2B receptors = molecular target: T2, 5HT2B receptors (Homo sapiens, UniProt P41595); experiment: Human 5-HT2B functional high throughput screening assay in CHO-K1 cells (calcium flux); format: cell-based; settings: for pEC50: CHO-K1 cells, calcium flux
T2 construct: expressed in transfected cells; host or cells: CHO-K1 cells
T2 sequence (P41595 whole entry): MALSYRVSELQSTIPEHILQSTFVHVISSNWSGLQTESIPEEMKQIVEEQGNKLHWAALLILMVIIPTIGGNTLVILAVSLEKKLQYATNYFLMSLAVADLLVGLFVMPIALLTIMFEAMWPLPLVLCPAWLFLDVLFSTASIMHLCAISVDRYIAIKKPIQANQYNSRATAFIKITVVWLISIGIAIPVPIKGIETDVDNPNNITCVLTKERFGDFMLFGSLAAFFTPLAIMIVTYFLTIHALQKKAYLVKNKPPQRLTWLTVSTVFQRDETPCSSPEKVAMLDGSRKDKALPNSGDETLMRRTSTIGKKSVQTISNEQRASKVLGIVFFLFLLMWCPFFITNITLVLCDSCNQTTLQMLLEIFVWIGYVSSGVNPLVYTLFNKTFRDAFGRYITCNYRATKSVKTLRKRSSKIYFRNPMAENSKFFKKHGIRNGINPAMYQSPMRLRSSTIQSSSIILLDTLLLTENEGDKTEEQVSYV
Procedure: as §1, §2, §3

[1] = 5-HT2C agonist activity, read-out: EC50
[2] = 5-HT2B agonist activity, read-out: EC50
[3] = 5-HT2B, maximum functional response as percentage relative to the effect of serotonin

Row | pEC50 (5HT2C receptors; [1]) | Emax (5HT2C receptors; read-out: Emax) [%] | pEC50 (5HT2B receptors; [2]) | Emax (5HT2B receptors; [3]) | Structure (SMILES) | Emax (5HT2C receptors) [%] | pEC50 (5HT2C receptors; EC50, 5-HT2C agonist activity) | pEC50 (5HT2B receptors; EC50, 5-HT2B agonist activity) | Emax (5HT2B receptors; CHO-K1) [%]
1 | 6.52 | > 120 | < 5.00 | inactive | C[C@H](Cc1ccccc1)Oc1ccc2c(c1)C(=O)NC[C@@H]1CN(Cc3ccccc3)C[C@@H]21 (mixture of isomers) [Example 118, Trans-2-benzyl-8-((R)-1-phenylpropan-2-yloxy)-1,2,3,3a,4,5-hexahydrobenzo[e]pyrrolo[3,4-c]azepin-6(10bH)-one] | – | – | – | –
2 | 6.40 | 110 | < 5.00 | inactive | C[C@@H](Cc1ccccc1)Oc1ccc2c(c1)C(=O)NC[C@@H]1CN(Cc3ccccc3)C[C@@H]21 (mixture of isomers) [Example 120, Trans-2-benzyl-8-((S)-1-phenylpropan-2-yloxy)-1,2,3,3a,4,5-hexahydrobenzo[e]pyrrolo[3,4-c]azepin-6(10bH)-one] | – | – | – | –
3 | 8.40 | 120 | < 5.00 | inactive | C[C@@H](Cc1ccccc1)Oc1ccc2c(c1)C(=O)NC[C@@H]1CNC[C@@H]21 (mixture of isomers) [Example 149, Trans-8-((S)-1-phenylpropan-2-yloxy)-1,2,3,3a,4,5-hexahydrobenzo[e]pyrrolo[3,4-c]azepin-6(10bH)-one] | – | – | – | –
4 | 9.15 | 100 | < 5.00 | inactive | CC(O)c1cc(-c2ccc3c(c2)C(=O)NC[C@H]2CN(C)C[C@H]32)ccc1F (mixture of isomers) [Example 307, (3aS,10bS)-8-[4-Fluoro-3-(1-hydroxyethyl)phenyl]-2-methyl-2,3,3a,4,5,10b-hexahydropyrrolo[3,4-d][2]benzazepin-6(1H)-one] | – | – | – | –
5 | – | > 120 | < 5.00 | inactive | CN1C[C@H]2CNC(=O)c3cc(-c4ccc(F)cc4)ccc3[C@@H]2C1 (relative stereo) [Example 75, Trans-8-(4-fluorophenyl)-2-methyl-1,2,3,3a,4,5-hexahydrobenzo[e]pyrrolo[3,4-c]azepin-6(10bH)-one] | – | – | – | –
6 | 7.96 | > 120 | < 5.00 | inactive | CN1C[C@H]2CNC(=O)c3cc(-c4cccc(F)c4)ccc3[C@@H]2C1 (relative stereo) [Example 76, Trans-8-(3-fluorophenyl)-2-methyl-1,2,3,3a,4,5-hexahydrobenzo[e]pyrrolo[3,4-c]azepin-6(10bH)-one] | – | – | – | –
7 | 8.24 | > 120 | < 5.00 | inactive | CN1C[C@H]2CNC(=O)c3cc(-c4ccccc4F)ccc3[C@@H]2C1 (relative stereo) [Example 77, Trans-8-(2-fluorophenyl)-2-methyl-1,2,3,3a,4,5-hexahydrobenzo[e]pyrrolo[3,4-c]azepin-6(10bH)-one] | – | – | – | –

Row | Structure (SMILES) | pEC50 (5HT2C receptors; [1]) | Emax (5HT2C receptors; read-out: Emax) [%] | pEC50 (5HT2B receptors; [2]) | Emax (5HT2B receptors; [3]) | Emax (5HT2C receptors) [%] | pEC50 (5HT2C receptors; EC50, 5-HT2C agonist activity) | pEC50 (5HT2B receptors; EC50, 5-HT2B agonist activity) | Emax (5HT2B receptors; CHO-K1) [%]
8 | C[C@@H](Oc1ccc2c(c1)C(=O)NC[C@@H]1CNC[C@@H]21)c1ccccc1 (mixture of isomers) [Example 150, Trans-8-((R)-1-phenylethoxy)-1,2,3,3a,4,5-hexahydrobenzo[e]pyrrolo[3,4-c]azepin-6(10bH)-one] | – | – | – | inactive | > 120 | 7.30 | < 5.00 | –
9 | C[C@H](Oc1ccc2c(c1)C(=O)NC[C@@H]1CNC[C@@H]21)c1ccccc1 (mixture of isomers) [Example 155, Trans-8-((S)-1-phenylethoxy)-1,2,3,3a,4,5-hexahydrobenzo[e]pyrrolo[3,4-c]azepin-6(10bH)-one] | – | – | – | inactive | > 120 | 7.30 | < 5.00 | –
10 | c1cnc2c(c1)C1CNCC1CCO2 (mixture of isomers) [Example 260, 2,3,3a,4,5,10b-Hexahydro-1H-pyrrolo[3′,4′:4,5]oxepino[2,3-b]pyridine] | 6.00 | – | 5.52 | – | > 120 | – | – | 45
